Laboratory results taken from ChEMBL document CHEMBL1141822, “Tenellic acids A-D: new bioactive diphenyl ether derivatives from the aquatic fungus Dendrospora tenella” (1999).
Active and inactive are the calls of the source. No cut-off for these calls is given here.

What was measured:
Bacillus subtilis = assay: Antimicrobial activity against Bacillus subtilis ATCC 6051 at 200 ug/disk; format: functional; conditions: read-out: IZ
Candida albicans = assay: Antimicrobial activity against Candida albicans ATCC 14053 at 200 ug/disk; format: functional, organism-based
Staphylococcus aureus = assay: Antimicrobial activity against Staphylococcus aureus ATCC 29213 at 200 ug/disk; format: functional; conditions: read-out: IZ

Structure (SMILES)	zone of inhibition at 200 µg/disc (Bacillus subtilis)	Activity (Candida albicans)	zone of inhibition at 200 µg/disc (Staphylococcus aureus)
COc1c(C(CC(C)C)OC)ccc(Oc2c(O)cc(C)cc2C=O)c1C(=O)O (stereo not given) [TENELLIC ACID A]	11 mm	inactive	–
COc1c(C(O)CC(C)C)ccc(Oc2c(O)cc(C)cc2C=O)c1C(=O)O (stereo not given) [TENELLIC ACID B]	9 mm	inactive	–
COc1c(C(CC(C)C)OC(C)=O)ccc(Oc2c(O)cc(C)cc2C=O)c1C(=O)O (stereo not given) [TENELLIC ACID C]	12 mm	inactive	14 mm
COc1c(C(CC(C)C)OCC(C)C)ccc(Oc2c(O)cc(C)cc2C=O)c1C(=O)O (stereo not given) [TENELLIC ACID D]	29 mm	inactive	25 mm
